# In patent US11584742B2 (MASARYKOVA UNIVERZITA, priority 2018, dated 2023):
# Key:
# [1] = target: T1, MRE11 (Homo sapiens, UniProt P49959); assay: HTS nuclease assay (cleavage of CY5/BBQ-quenched 5' overhang DNA substrate); assay type: biochemical; settings: in vitro HTS nuclease assay; 18 nM MRE11, 40 nM DNA substrate; analysis at t=4 h
# T1 sequence (P49959 1-708): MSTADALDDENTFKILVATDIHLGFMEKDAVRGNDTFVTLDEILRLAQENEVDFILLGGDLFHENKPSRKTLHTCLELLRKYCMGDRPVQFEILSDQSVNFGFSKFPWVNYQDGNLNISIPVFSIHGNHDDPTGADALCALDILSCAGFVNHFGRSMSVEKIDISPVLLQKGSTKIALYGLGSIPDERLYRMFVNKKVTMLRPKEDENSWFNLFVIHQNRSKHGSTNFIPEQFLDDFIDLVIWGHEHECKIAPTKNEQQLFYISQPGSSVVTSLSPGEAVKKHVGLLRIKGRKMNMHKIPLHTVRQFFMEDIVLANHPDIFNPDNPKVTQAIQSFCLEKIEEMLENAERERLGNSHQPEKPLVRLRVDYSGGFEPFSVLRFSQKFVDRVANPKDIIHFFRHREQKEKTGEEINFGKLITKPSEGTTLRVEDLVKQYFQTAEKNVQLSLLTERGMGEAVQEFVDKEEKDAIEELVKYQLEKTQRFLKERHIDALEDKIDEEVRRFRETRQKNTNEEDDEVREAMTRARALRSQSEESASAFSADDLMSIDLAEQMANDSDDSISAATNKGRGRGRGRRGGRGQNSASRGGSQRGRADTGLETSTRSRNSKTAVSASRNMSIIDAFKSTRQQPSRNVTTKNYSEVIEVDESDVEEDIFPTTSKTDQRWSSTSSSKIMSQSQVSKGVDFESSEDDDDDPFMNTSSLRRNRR
# [2] = test system: DR-GFP U2OS cells; assay: HR assay (GFP fluorescence after I-SceI transfection, flow cytometry); assay type: cell-based; settings: Homo sapiens, inhibitor at 25 μM, 72 hours after transfection
# Experimental: DR-GFP U2OS cells (Methods in Molecular Biology 2012, 920, 379.) were transfected with 2.5 μg of I-SceI-expressing pCAGGS vector and treated with the inhibitors at 25 μM concentration. 72 hours after the transfection, the cells were trypsinized and resuspended in 3% BSA in PBS. GFP fluorescence detection was carried out using a BD FACSVerse flow cytometer and data analyzed with FlowJo software.
# [3] = test system: Phosphorylated RPA32 S4/S8 in U2OS cells; assay: RPA assay (RPA phosphorylation after camptothecin); assay type: cell-based; settings: Homo sapiens, U2OS cells pre-treated 1 h, then 1 uM camptothecin 1 h; for inhibition at 10 µM: inhibitor at 10 μM
# Experimental: U2OS cells were pre-treated for 1 h with MRE11 inhibitors followed by addition of 1 uM camptothecin for 1 h. Cells were lysed in SDS-PAGE loading buffer, sonicated and boiled at 70° C. for 10 min. Equal amounts of protein (50-100 μg) were analysed by Tris-glycine gel electrophoresis Expression levels were quantified using Multi Gauge software and expressed relative to loading control. Phosphorylated RPA32 S4/S8 (A300-245A, Bethyl Laboratories) 1:1000 dilution was used.
SMILES,IC50 [1] [nM],inhibition at 25 µM [2] [%],inhibition at 25 µM ([3]; inhibitor at 25 μM) [%],inhibition at 10 µM [3] [%]
"N#C/C(=C\c1ccc(O)c(O)c1)C(=O)Nc1nc(-c2ccccc2)c(-c2cnccn2)s1 [Preparative Example 238, (E)-2-cyano-3-(3,4-dihydroxyphenyl)-N-(4-phenyl-5-(pyrazin-2-yl)thiazol-2-yl)acrylamide]",< 2000,50 to 75,–,–
"COc1ccc(-c2csc(NC(=O)/C(C#N)=C/c3ccc(O)c(O)c3)n2)cn1 [Preparative Example 241, (E)-2-cyano-3-(3,4-dihydroxyphenyl)-N-(4-(6-methoxypyridin-3-yl)thiazol-2-yl)acrylamide]",< 2000,< 50,75,–
"N#C/C(=C\c1cc(Cl)c(O)c(Cl)c1)C(=O)Nc1nc(-c2ccccn2)cs1 [Preparative Example 243, (E)-2-cyano-3-(3,5-dichloro-4-hydroxyphenyl)-N-(4-(pyridin-2-yl)thiazol-2-yl)acrylamide]",< 2000,50 to 75,–,100
"Cc1cc(C(C)(C)C)cc(C)c1-c1csc(NC(=O)/C(C#N)=C/c2ccc(O)c(O)c2)n1 [Preparative Example 246, (E)-N-(4-(4-(tert-butyl)-2,6-dimethylphenyl)thiazol-2-yl)-2-cyano-3-(3,4-dihydroxyphenyl)acrylamide]",< 2000,> 75,–,–
"CC(C)(C)c1cccc(-c2csc(NC(=O)/C(C#N)=C/c3ccc(O)c(O)c3)n2)c1 [Preparative Example 247, (E)-N-(4-(3-(tert-butyl)phenyl)thiazol-2-yl)-2-cyano-3-(3,4-dihydroxyphenyl)acrylamide]",2000 to 10000,50 to 75,–,–

# Further lines, with some results ahead:
IC50 [1] [nM],SMILES,inhibition at 25 µM [2] [%],inhibition at 25 µM ([3]; inhibitor at 25 μM) [%],inhibition at 10 µM [3] [%]
< 2000,"Cc1cccnc1-c1csc(NC(=O)/C(C#N)=C/c2ccc(O)c(O)c2)n1 [Preparative Example 239, (E)-2-cyano-3-(3,4-dihydroxyphenyl)-N-(4-(3-methylpyridin-2-yl)thiazol-2-yl)acrylamide]",> 75,–,–
< 2000,"COc1cccnc1-c1csc(NC(=O)/C(C#N)=C/c2ccc(O)c(O)c2)n1 [Preparative Example 242, (E)-2-cyano-3-(3,4-dihydroxyphenyl)-N-(4-(3-methoxypyridin-2-yl)thiazol-2-yl)acrylamide]",> 75,–,95
